From US8440652B2, “MST1 kinase inhibitors and methods of their use” (Lexicon Pharmaceuticals, Inc., priority 2011, dated 2013) come the findings set out here.

Where two headings read alike, the source gives them in different places. Where only a bound is given, the exact number is not on record here.

The test concerns the target T1, MST1 (Homo sapiens, UniProt Q13043).
T1 sequence (Q13043 1-487): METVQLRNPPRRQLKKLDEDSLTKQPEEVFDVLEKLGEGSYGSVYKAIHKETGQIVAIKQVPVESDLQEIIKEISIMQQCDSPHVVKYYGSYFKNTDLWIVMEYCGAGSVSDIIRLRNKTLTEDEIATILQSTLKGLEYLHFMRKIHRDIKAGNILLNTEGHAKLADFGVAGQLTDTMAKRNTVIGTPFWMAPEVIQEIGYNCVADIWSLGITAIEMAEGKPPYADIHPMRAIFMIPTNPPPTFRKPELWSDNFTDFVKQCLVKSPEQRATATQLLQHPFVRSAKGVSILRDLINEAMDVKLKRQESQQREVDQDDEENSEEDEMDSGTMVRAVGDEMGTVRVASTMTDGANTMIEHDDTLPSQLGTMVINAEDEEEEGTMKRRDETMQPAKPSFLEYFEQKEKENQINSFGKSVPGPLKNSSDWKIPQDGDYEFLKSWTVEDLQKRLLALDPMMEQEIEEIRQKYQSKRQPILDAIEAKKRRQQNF
Nature of the test: In vitro measurement of MST1 inhibition (Z′-Lyte kinase assay). It counts as biochemical.

[1] abbreviates: 1 μM ATP, read-out: IC50 (μM) 1 μM ATP.
Setting [2] is: 50 μM ATP, read-out: IC50 (μM) 50 μM ATP.

As for `CCN(C)S(=O)(=O)c1ccc(-c2cnc(N)c(-c3ccc4c(c3)CCNC4=O)c2)s1` [5-(6-amino-5-(1-oxo-1,2,3,4-tetrahydroisoquinolin-6-yl)pyridin-3-yl)-N-ethyl-N-methylthiophene-2-sulfonamide], the IC50 was < 0.05 µM under setting [1] and < 0.01 µM under setting [2].

For the molecule `[2H]C1([2H])CNC(=O)c2ccc(-c3nc(-c4ccc(S(=O)(=O)N(C)C5CC5)cc4)cnc3N)cc21` [4-(5-amino-6-(4,4-dideutero-1-oxo-1,2,3,4-tetrahydroisoquinolin-6-yl)pyrazin-2-yl)-N-cyclopropyl-N-methylbenzenesulfonamide], the IC50 is, setting by setting: under setting [1], < 0.01 µM; under setting [2], < 0.01 µM. For `CCS(=O)(=O)c1ccc(-c2cnc(N)c(-c3ccc4c(c3)CCNC4=O)c2)cc1` [6-(2-amino-5-(4-(ethylsulfonyl)phenyl)pyridin-3-yl)-3,4-dihydroisoquinolin-1(2H)-one], the half-inhibitory concentration (IC50) is, setting by setting: under setting [1], < 0.05 µM; under setting [2], < 0.05 µM.

In the case of `CCNS(=O)(=O)c1ccc(-c2cnc(N)c(-c3ccc(C(N)=O)cn3)c2)cc1` [2′-amino-5′-(4-(N-ethylsulfamoyl)phenyl)-[2,3′-bipyridine]-5-carboxamide], the IC50 is < 0.05 µM under setting [1] and < 0.01 µM under setting [2].

Turning to `Cc1cc(-c2cnc(N)c(-c3ccc4c(c3)CCNC4=O)n2)ccc1C(C)(C)C#N` [2-(4-(5-amino-6-(1-oxo-1,2,3,4-tetrahydroisoquinolin-6-yl)pyrazin-2-yl)-2-methylphenyl)-2-methylpropanenitrile], the IC50 is < 0.05 µM under setting [1] and < 0.01 µM under setting [2]. For the molecule `CCN(CC)S(=O)(=O)c1ccc(-c2cnc(N)c(-c3ccc4c(O)n[nH]c4c3)c2)cc1` [4-(6-amino-5-(3-hydroxy-1H-indazol-6-yl)pyridin-3-yl)-N,N-diethylbenzenesulfonamide], the half-maximal inhibitory concentration (IC50) under setting [2] is < 0.15 µM. For the molecule `Nc1ncc(-c2ccc(S(=O)(=O)NC3CC3)c(Cl)c2)cc1-c1ccc2c(c1)CCNC2=O` [4-(6-amino-5-(1-oxo-1,2,3,4-tetrahydroisoquinolin-6-yl)pyridin-3-yl)-2-chloro-N-cyclopropylbenzenesulfonamide], the IC50 is, setting by setting: under setting [1], < 0.01 µM; under setting [2], < 0.01 µM. Regarding `Nc1ncc(-c2ccc(C3(O)CCOCC3)cc2)nc1-c1ccc2c(c1)CCNC2=O` [6-(3-amino-6-(4-(4-hydroxytetrahydro-2H-pyran-4-yl)phenyl)pyrazin-2-yl)-3,4-dihydroisoquinolin-1(2H)-one], the 50% inhibitory concentration (IC50) by setting is: under setting [1], < 0.05 µM; under setting [2], < 0.01 µM.

As for `CC1(C)CNC(=O)c2ccc(-c3nc(-c4ccc(C5(C#N)CC5)cc4)cnc3N)cc21` [1-(4-(5-amino-6-(4,4-dimethyl-1-oxo-1,2,3,4-tetrahydroisoquinolin-6-yl)pyrazin-2-yl)phenyl)cyclopropanecarbonitrile], the half-inhibitory concentration (IC50) is < 0.01 µM under setting [1] and < 0.01 µM under setting [2]. `CC(=O)NS(=O)(=O)c1ccc(-c2cnc(N)c(-c3ccc(C(N)=O)cc3)c2)cc1` [4-(5-(4-(N-acetylsulfamoyl)phenyl)-2-aminopyridin-3-yl)benzamide]: under setting [2], the IC50 is < 0.15 µM. On to `CCN(C)S(=O)(=O)c1ccc(-c2cnc(N)c(-c3ccc4c(O)nccc4c3)n2)cc1` [4-(5-amino-6-(1-hydroxyisoquinolin-6-yl)pyrazin-2-yl)-N-ethyl-N-methylbenzenesulfonamide], for which the 50% inhibitory concentration (IC50) is, setting by setting: under setting [1], < 0.01 µM; under setting [2], < 0.01 µM. For `CC(=O)NCc1ccc(-c2cnc(N)c(-c3ccc4c(c3)CCNC4=O)c2)cc1` [N-(4-(6-amino-5-(1-oxo-1,2,3,4-tetrahydroisoquinolin-6-yl)pyridin-3-yl)benzyl)acetamide], the IC50 under setting [1] is < 0.05 µM and the IC50 under setting [2] was < 0.01 µM. Taken in the same sequence, the figures for `CN(C1CC1)S(=O)(=O)c1ccc(-c2cnc(N)c(-c3ccc4c(c3)OCCNC4=O)c2)cc1` [4-(6-amino-5-(5-oxo-2,3,4,5-tetrahydrobenzo[f][1,4]oxazepin-8-yl)pyridin-3-yl)-N-cyclopropyl-N-methylbenzenesulfonamide] were < 0.01 µM and < 0.01 µM. Take `Nc1ncc(-c2ccc(S(=O)(=O)NC3CC3)cc2)nc1-c1cc2c(cn1)C(=O)NCC2` [4-(5-amino-6-(8-oxo-5,6,7,8-tetrahydro-2,7-naphthyridin-3-yl)pyrazin-2-yl)-N-cyclopropylbenzenesulfonamide]: the IC50 by setting is: under setting [1], < 0.01 µM; under setting [2], < 0.01 µM. With `CC(C)Oc1cc(-c2nc(-c3ccc(S(=O)(=O)N(C)C4CC4)cc3)cnc2N)ccc1C(N)=O` [4-(3-amino-6-(4-(N-cyclopropyl-N-methylsulfamoyl)phenyl)pyrazin-2-yl)-2-isopropoxybenzamide], the IC50 by setting is: under setting [1], < 0.05 µM; under setting [2], < 0.01 µM. With `CC(Oc1ccc(-c2cnc(N)c(-c3ccc4c(c3)CCNC4=O)n2)cc1)C1CC1` (centres unmarked) [6-(3-amino-6-(4-(1-cyclopropylethoxy)phenyl)pyrazin-2-yl)-3,4-dihydroisoquinolin-1(2H)-one], the IC50 was < 0.05 µM under setting [1] and < 0.01 µM under setting [2]. Taken in the same sequence, the figures for `N#C[C@]1(c2ccc(-c3cnc(N)c(-c4ccc5c(c4)CCNC5=O)n3)cc2)[C@@H]2COC[C@@H]21` [(1R,5S,6s)-6-(4-(5-amino-6-(1-oxo-1,2,3,4-tetrahydroisoquinolin-6-yl)pyrazin-2-yl)phenyl)-3-oxabicyclo[3.1.0]hexane-6-carbonitrile] were < 0.05 µM and < 0.01 µM.

As to `Nc1ncc(-c2ccc(S(=O)(=O)N3CCCCC3)cc2)nc1-c1ccc2c(=O)[nH]ccc2c1` [6-(3-amino-6-(4-(piperidin-1-ylsulfonyl)phenyl)pyrazin-2-yl)isoquinolin-1(2H)-one], the IC50 is < 0.01 µM under setting [1] and < 0.01 µM under setting [2]. Consider `Nc1ncc(-c2ccc(F)cc2)cc1-c1ccc2c(c1)CCNC2=O` [6-(2-amino-5-(4-fluorophenyl)pyridin-3-yl)-3,4-dihydroisoquinolin-1(2H)-one], for which the IC50 was < 0.15 µM under setting [1] and < 0.05 µM under setting [2]. Take `CC1(C)CNC(=O)c2ccc(-c3cc(-c4ccc(C5(C#N)CCOCC5)cc4)cnc3N)cc21` [4-(4-(6-amino-5-(4,4-dimethyl-1-oxo-1,2,3,4-tetrahydroisoquinolin-6-yl)pyridin-3-yl)phenyl)tetrahydro-2H-pyran-4-carbonitrile]: the IC50 by setting is: under setting [1], < 0.01 µM; under setting [2], < 0.01 µM. As for `N#Cc1ccc(-c2cnc(N)c(-c3cc4c(cn3)C(=O)NCC4)n2)cc1` [4-(5-amino-6-(8-oxo-5,6,7,8-tetrahydro-2,7-naphthyridin-3-yl)pyrazin-2-yl)benzonitrile], the IC50 by setting is: under setting [1], < 0.01 µM; under setting [2], < 0.01 µM. Regarding `CCCN(C)S(=O)(=O)c1ccc(-c2cnc(N)c(-c3ccc4c(c3)CCNC4=O)c2)nc1` [6′-amino-N-methyl-5′-(1-oxo-1,2,3,4-tetrahydroisoquinolin-6-yl)-N-propyl-[2,3′-bipyridine]-5-sulfonamide], the IC50 was < 0.01 µM under setting [1] and < 0.01 µM under setting [2]. On to `Nc1ncc(-c2ccc(S(=O)(=O)N(CC(F)(F)F)C3CCC3)cc2)cc1-c1ccc2c(c1)CCNC2=O` [4-(6-amino-5-(1-oxo-1,2,3,4-tetrahydroisoquinolin-6-yl)pyridin-3-yl)-N-cyclobutyl-N-(2,2,2-trifluoroethyl)benzenesulfonamide], for which the IC50 runs as follows: under setting [1], < 0.05 µM; under setting [2], < 0.01 µM. Taken in the same sequence, the figures for `CCCN(C)S(=O)(=O)c1ccc(-c2cnc(N)c(-c3ccc4c(c3)CCNC4=O)n2)cc1` [4-(5-amino-6-(1-oxo-1,2,3,4-tetrahydroisoquinolin-6-yl)pyrazin-2-yl)-N-methyl-N-propylbenzenesulfonamide] were < 0.01 µM and < 0.01 µM. Taken in the same sequence, the figures for `Nc1ncc(-c2ccc(C(=O)C(F)(F)F)cc2)nc1-c1ccc2c(c1)CCNC2=O` [6-(3-amino-6-(4-(2,2,2-trifluoroacetyl)phenyl)pyrazin-2-yl)-3,4-dihydroisoquinolin-1(2H)-one] were < 0.15 µM and < 0.05 µM. As to `CCN(C)S(=O)(=O)c1ccc(-c2cnc(N)c(-c3cc4c(s3)C(=O)NCC4)c2)cc1` [4-(6-amino-5-(7-oxo-4,5,6,7-tetrahydrothieno[2,3-c]pyridin-2-yl)pyridin-3-yl)-N-ethyl-N-methylbenzenesulfonamide], the IC50 is < 0.05 µM under setting [1] and < 0.01 µM under setting [2]. On to `Nc1ncc(-c2ccc(S(=O)(=O)NC3CC3)cc2)nc1-c1ncc(-c2ccccc2)[nH]1` [4-(5-amino-6-(5-phenyl-1H-imidazol-2-yl)pyrazin-2-yl)-N-cyclopropylbenzenesulfonamide], for which the IC50 under setting [2] is < 0.05 µM.

With `CN(C1CC1)S(=O)(=O)c1ccc(-c2cnc(N)c(-c3ccc4c(c3)OC[C@@H](COCc3ccccc3)NC4=O)c2)cc1` [(R)-4-(6-amino-5-(3-((benzyloxy)methyl)-5-oxo-2,3,4,5-tetrahydrobenzo[f][1,4]oxazepin-8-yl)pyridin-3-yl)-N-cyclopropyl-N-methylbenzenesulfonamide], the IC50 by setting is: under setting [1], < 0.15 µM; under setting [2], < 0.01 µM.

`CNS(=O)(=O)c1ccc(-c2cnc(N)c(-c3ccc(C(N)=O)cc3)c2)cc1` [4-(2-amino-5-(4-(N-methylsulfamoyl)phenyl)pyridin-3-yl)benzamide]: the IC50 under setting [2] is < 0.15 µM. Take `CCNS(=O)(=O)c1ccc(-c2cnc(N)c(-c3ccc4c(c3)CCNC4=O)n2)cc1` [4-(5-amino-6-(1-oxo-1,2,3,4-tetrahydroisoquinolin-6-yl)pyrazin-2-yl)-N-ethylbenzenesulfonamide]: the concentration for half-maximal inhibition (IC50) was < 0.01 µM under setting [1] and < 0.01 µM under setting [2].
